Laboratory results published in patent US7070965B1, “Small molecule anticancer compounds and related production process” (priority 1998, dated 2006).
≈ marks a conversion by molar mass, not a printed value.

What was measured:
K-562 human leukemia = experiment: Cytotoxicity ID50/ID75/ID90, viability assessment; type: cell-based; details: 48 hours
Method: (§1) PBLs, K-562 and SNU-1 cells in suspension culture were seeded in 96-well microplates at a density of 5×10^4 cells/well for K-562 and SNU-1, and 1×10^5 cells/well for PBLs. iso-C15 were diluted with medium to provide different concentrations (0, 1.5, 3.0, 6.0, 15.0, 30.0, and 60.0 μg/ml). Both untreated and solvent (NaOH and Tween 80) treated cells served as controls. After incubation for 48 hours at 37° C., cells were collected directly from the wells for viability assessment.
(§2) The ID50, ID75 and ID90 were determined in duplicate in every set of experiments, and each experiment was repeated three times under identical conditions. ID50, ID75 and ID90 were defined as the concentration of iso-C15 required to kill 50, 75 or 90%, respectively, of cells (compared with that in untreated cells) and computed using CalcuSyn for Windows software (Biosoft, Cambridge UK) based on Median Effect method by Dr. T. C. Chou.

[1] = system: SNU-1 human gastric carcinoma; experiment: Cytotoxicity ID50/ID75/ID90, viability assessment; type: cell-based; details: 48 hours
Method: as §1, §2

[2] = system: K562 human leukemia cells; experiment: Flow cytometry annexin V / PI apoptosis detection; type: cell-based; details: 30 μg/ml, 24 hours
Method: (§3) Human cancer cell lines DU-145 (prostate cancer), K562 (leukemia), HCT116 (colon cancer), H1688 (lung cancer), SUN423 (hepatocarcinoma), MCF7 (breast cancer), CRL-1687 (pancreatic cancer), and SUN-1 (gastric cancer) were obtained from American Type Culture Collection (ATCC). 30 ml blood was collected from a health person and normal peripheral mononuclear cells were separated by Ficoll separation solution (Sigma). All cells were maintained in RPMI 1640, DMEM, or McCoy medium supplemented with 10% FCS, […] streptomycin and 100 u/ml penicillin. Normal human peripheral mononuclear cells, K562 and SUN-1 were suspended cells. After spinning at 1,500 RPM for 5 min, supernatants were discharged and cells were resuspended and expended in fresh medium. The other tumor cell lines were adherent cells and were dispersed with 0.05% trypsin/0.01% EDTA (Irvine Scientific, CA) for expansion. Cells were seeded in T75 flasks at 2×10^6 cells/flask in culture medium supplemented with 10% fetal bovine serum and incubated overnight at 37° C. with 5% CO2. The adherent cells attached to the plate were striped with disposable cell scrapers (Fisher Scientific) after treated either with 1% iso-C15, anteiso-C15 or control solution for 1, 2, 4, 8 and 24 hours and then combined with respective float cells. Cells were then prepared for flow cytometry analysis, in situ cell death detection, DNA fragmentation and Western blot assay followed the preparation methods for each assay. Cell pellets treated for 2 and 4 hr with either iso-C15 or control were also stored at −70° C. for future studies of gene regulation.
(§4) A flow cytometer (FACScan) with Consort 30 software for gating analysis (Becton Dickinson, San Jose, Calif.) was used. The Apoptosis Detection kit (R&D Systems) was used to quantitatively determine the percentage of cells undergoing apoptosis by virtue of their ability to bind annexin V and exclude propidium iodide (PI). Cells were washed in cold PBS twice and resuspended in binding buffer. Fluorescent-labeled annexin V and PI were added to the cells. The cells undergoing apoptosis, expressing phosphotidyiserine on the outer leaflet of cell membranes, would bind annexin V. The cells in later stage of apoptosis or necrosis, with a compromised cell membrane, would allow PI to bind to the cellular DNA. The resulting cells were immediately analyzed by flow cytometer equipped with a single laser emitting excitation light at 488 nm. The annexin V and PI generated signals can be detected in signal detector FL1 and FL2, respectively. […]

normal human PBLs = experiment: Flow cytometry annexin V / PI apoptosis detection; type: cell-based; details: 60 μg/ml, 24 hours
Method: as §3, §4

K562 leukemia cell line = experiment: DNA fragmentation gel electrophoresis; type: cell-based, human; details: 60 μg/ml
Method: The gel electrophoresis assay was used for the detection of apoptosis-specific internucleosonal DNA degradation in these cells. […] After centrifuged at 14,000 RPM for 20 min at 4° C., the supernatants were transferred to new tubes and treated with RNase and proteinase K respectively. Supernatants were extracted with phenol/chloroform twice, and fragmented DNA was precipitated in ethanol. Samples were electrophoresed in a 1.5% agarose gel in 1× TAE buffer. The gel was stained with ethidium bromide and destained with distilled water. The fragmented DNA was then visualized under UV light.

[3] = system: DMBA-induced mammary cancer; experiment: Chemoprevention of DMBA-induced mammary carcinogenesis in rats; type: in vivo, Sprague-Dawley rats; details: 0.5 ml of 0.7% solution intragastric, five times a week, twenty weeks after DMBA
Method: 13-methyltetradecanoic acid (iso-C15) was prepared by dissolving in NaOH solution and then in 0.35% Tween 80 with pH 7.5.
Fifty female Sprague-Dawley rats were maintained on laboratory chow. At 50 days of age, rats were given a single dose (5 mg) of DMBA (Sigma Chemical Co., St. Louis. Mo.) via an intragastric tube. Seven days after DMBA administration, the rats were randomly divided into two groups of 25. Each rat in the control group was given 0.5 ml of 0.35% Tween 80 five times a week via an intragastric tube throughout the experiment, while each in the test group was given 0.5 ml iso-C15 solution of concentration 0.7%, five times a week. Food and water were available ad libitum. Twenty weeks after DMBA administration, all rats were scarified, and all palpable tumors were removed.

Q: How did the ID75 (K-562 human leukemia) turn out when `CC(C)CCCCCCCCCCCC(=O)O` [iso-C15, 13-methyltetradecanoic acid] was run?
A: The ID75 was 22.27 ± 4.60 µg/mL (≈ 91.9 µM).

Q: What about the ID90 (K-562 human leukemia) of the same compound?
A: The ID90 was 43.57 ± 6.71 µg/mL (≈ 180 µM).

Q: And the ID75 [1]?
A: Its ID75 is 47.43 ± 4.95 µg/mL (≈ 196 µM).

Q: What about the ID90 [1] of the same compound?
A: Its ID90 is 80.49 ± 10.03 µg/mL (≈ 332 µM).

Q: And the “FL1/FL2 pattern (annexin V / PI), apoptosis” value [2]?
A: The value was “the majority of the cells were undergoing apoptosis”.

Q: What about the “FL1/FL2 pattern (annexin V / PI), effect on normal lymphocytes” value (normal human PBLs) of the same compound?
A: The value was “no significant effects”.

Q: What about the “apoptotic DNA fragmentation” value (K562 leukemia cell line) of the same compound?
A: The value was “fragmented low molecular weight DNA bands were seen at 2 hour and were prominent at 8 hour treated”.

Q: And the “No. of rats with tumors” value ([3]; 25 rats)?
A: The value was 3.

Q: What about the Mean tumor weight [3] of the same compound?
A: Its Mean tumor weight is 0.8 ± 1.3 g.

Q: And the No. of tumors [3]?
A: Its No. of tumors is 4.

Q: What about the “No. of tumors per rat” value [3] of the same compound?
A: The value was 0.2 ± 0.1.

Q: What about the “No. of tumors/tumor bearing rat” value [3] of the same compound?
A: Its value is 1.3 ± 0.5.

Q: And the tumor incidence [3]?
A: The tumor incidence was 12%.
